Consider one compound from patent US7098334B2 (Industrial Research Limited, priority 2002, dated 2006).

The target in this experiment is T1, human MTAP (Homo sapiens, UniProt Q13126).
T1 construct: inferred from pQE32 vector and Ni-NTA purification) (N); made in house; host or cells: E. coli
T1 sequence (Q13126 1-283): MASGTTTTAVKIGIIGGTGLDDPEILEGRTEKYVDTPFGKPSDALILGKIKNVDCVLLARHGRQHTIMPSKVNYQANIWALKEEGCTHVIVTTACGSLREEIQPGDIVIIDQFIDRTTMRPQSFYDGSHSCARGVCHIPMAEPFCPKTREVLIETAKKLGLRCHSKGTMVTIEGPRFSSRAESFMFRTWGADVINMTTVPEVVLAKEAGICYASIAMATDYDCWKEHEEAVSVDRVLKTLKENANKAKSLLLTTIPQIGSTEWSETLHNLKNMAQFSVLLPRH
Kind of experiment: Enzyme inhibition assay, MTAP (slow-onset inhibition constants). It counts as biochemical. How it is done: Ki as shown in Tables 1 and 2 is the initial inhibition constant formed by the enzyme-inhibitor complex, and Ki* is the equilibrium dissociation constant for inhibition that is observed following a period of slow-onset, tight binding inhibition. Ki* is the biologically effective constant.
Enzyme assays were conducted to assess the effectiveness of selected compounds of the invention as inhibitors of MTAP and MTAN.
Enzymes.—The human MTAP protein was cloned into pQE32 expression vector and transformed into E. coli. Induction cultures containing 1 L (25 mg/L) and 50 μg/mL ampicillin were inoculated with 1 mL overnight grown starter-culture and incubated at 37° C. When the cultures reached an OD of ≈0.6 they were induced with 1.5 mM IPTG for 6 to 8 hours. Cells were harvested by centrifugation at 5000 rpm for 30 min, and subsequently resuspended in a buffer (20 mM imidazole, 300 mM NaCl, 0.2 mM phenylmethylsulfonyl fluoride (PMSF), 100 mM Tris, pH 8.0) containing a small amount of lysozyme to weaken the cell membrane. Cells were lysed with a French press. The insoluble material was removed by high-speed centrifugation. The cell extract was further clarified with 35% ammonium sulfate precipitation followed by high-speed centrifugation. The clarified cell extract was then applied to a 5 mL Ni-NTA column that had previously been equilibrated with the binding buffer. Further chromatographic steps were carried out by FPLC. The column was washed with 10 volumes of 50 mM imidazole, 300 mM NaCl, and 100 mM Tris, pH 8.0, and the protein was eluted with a buffer containing a 50–250 mM gradient of imidazole, 300 mM NaCl, 1 M Tris, pH 8.0. The purity of the protein was verified by running polyacrylamide gel followed by Coomassie staining. The protein was subsequently dialyzed in 50 mM NaCl, 2 mM dithiothreitol (DTT) and 50 mM Tris, pH 7.4, and was concentrated to 10 mg/mL. The purified protein was stored at −80° C. in 100 μL to 150 μL aliquots.
Inhibitors.—Inhibitor concentrations were determined by the UV absorbance spectrum using the published millimolar extinction coefficients for 9-dazadenine of 8.5 at 275 nm at pH 7.0.
Assays.—The direct spectrophotometric assay for the conversion of MTA into adenine was measured as the decrease in absorbance at 274 nm. At 274 nm, Δε between MTA and adenine is at a maximum and produces a spectral change of 1.6 absorbance units/cm/mM (DeWolf, W. E. Jr., Fullin, F. A., and Schramm, V. L. (1979) J. Biol. Chem. 254, 10868–10875)
This concentration corresponds to an OD of 0.7–1.1 at 274 nM. The formation of product was monitored as a decrease in absorbance at 274 nm. Conditions for Ki* determination used high concentrations of substrate. Two controls, one having no inhibitor and the other no enzyme were included in the experiment. The Ki values MTAP for the various compounds were calculated by fitting in the ratio of initial rates in the presence of inhibitor to without any inhibitor versus the inhibitor concentration, for the known Km and substrate concentration into the following expression.
Where Vo′ is the rate in the presence of inhibitor • Vo rate in the absence of inhibitor • [I] inhibitor concentration • And [S] is the substrate concentration
And the Ki* was calculated by fitting to the following expression
Where Vs′ is the steady-state rate following attainment of equilibrium in the presence inhibitor, and Vs is the steady-state rate in the control having no inhibitor. Both these equations are valid for competitive type inhibition.

Where two headings read alike, the source gives them in different places.

On to `CSC[C@H]1N[C@@H](c2c[nH]c3c(N)ncnc23)C(O)[C@H]1O` (stereo partly shown) [5′-methylthio-ImmA], for which the Ki stood at 0.107 nM (MTA at 150 μM, Km=2.5 μM, read-out: Ki (FIG. 1, inhibition of MTAP at varying concentrations)); 0.09 ± 0.018 nM (MTAP, equilibrium dissociation constant after slow-onset, tight binding inhibition, read-out: Ki*); 5 ± 0.5 nM (MTAP, initial inhibition constant, read-out: Ki). Further, the “Ki*” value (MTAP, equilibrium dissociation constant after slow-onset, tight binding inhibition) is “in the pM range”.
